Laboratory results taken from patent US10905679B2, “TRPM8 receptor agonist compounds and uses thereof” (UNIVERSIDAD MIGUEL HERNANDEZ DE ELCHE, priority 2016, dated 2021).

How the values were obtained:
[1] = biological target: T1, TRPM8 (Homo sapiens, UniProt Q7Z2W7); assay: Ca2+ fluorimetry assay in CHO cell line stably expressing TRPM8; assay type: cell-based; details: CHO cells stably expressing TRPM8
T1 construct: expressed in transfected cells
Experimental: The cells were cultured in monolayer in EMEM medium (Earle's minimum essential medium with Earle's salts, Invitrogen) supplemented with 10% foetal bovine serum (FBS), 2 mM L-glutamine, 1% penicillin-streptomycin solution and […] of the Geneticin antibiotic (Sigma) and kept at 37° C. in a humidified atmosphere with 5% of CO2. Ca^2+ fluorimetry assays were carried out in order to determine the efficacy of the compounds on the TRPM8 channels. The cells were seeded in 96-well plates with a density of 25,000 cells per well. Three days after seeding, the medium was removed and 100 μl of the Fluo-4NW fluorescent probe from Invitrogen was added with a concentration of 5 μM in the presence of 0.02% pluronic acid; after 60 minutes of incubation at 37° C. in a humidified atmosphere with 5% of CO2, the fluorescence was measured in a microplate reader (POLARstar Omega) with a configuration of 485 nm for the excitation and 520 nm for the emission, during 20 cycles. […] In the wells that were used as negative controls, 1 μl of AMTB [N-(3-aminopropyl)-2-[(3-methylphenyl)methoxy]-N-(2-thienylmethyl)benzamide] was added to obtain a final concentration of 10 μM, to block the TRPM8 channels.
The amplitudes of the Ca^2+ increases, caused by the stimulation of the cells with the compounds, were measured by subtracting the basal fluorescence signal (mean intensity obtained before adding the compound) from the fluorescence peak obtained after applying the compounds. The obtained results were adjusted to a sigmoid function using the software suite of the GraphPad Prism computer program.

[2] = test system: TRPM8, TRPV1 and TRPA1 channels; assay: Specificity by Ca2+ fluorescence microscopy in mouse dorsal root ganglion (DRG) neurons; assay type: cell-based; details: Fluo-4 AM fluorescence, FIG. 1
Experimental: Neurons obtained from a mouse dorsal root ganglion (DRG) were used to determine the specificity of the TZM-7 compound. These cells constitutively express the TRPM8, TRPV1 and TRPA1 channels, among others (the TRPV1 and TRPA1 channels are channels of the same family as the TRPM8 channel and are permeable to calcium). The intracellular Ca^2+ concentration was measured using fluorescence microscopy in order to view the activity of these channels. The cells were seeded with a density of 250,000 cells/well on round glass cover slips (18 mm diameter, […]) in 12-well plates (Costar) and cultured in Pure-EMEM during 3 days immediately before the Ca^2+ experiments. […] The cells that were not sensitive to the application of high potassium concentration were not analysed. […] The fluorescence measurements were taken using an Axiovert 200 inverted microscope from Zeiss (Oberkochen, Germany) coupled with an ORCA-ER CCD camera (Hamamatsu Photonics, Bridgewater, N.J.) and observed through a 10× magnification air lens. The Fluo-4 AM fluorescent probe was excited at 500 nm using a Lambda-10-2 filter wheel (Sutter Instruments, Novato, Calif.) and the emission fluorescence was filtered with a 535 nm longpass filter. […]

[3] = test system: guinea pig; assay: In vivo tear secretion measured using phenol red threads after ocular instillation; details: 10 μM, phenol red thread 30 seconds, p<0.05, comparable to menthol at 200 μM, FIG. 2
Source text: The in vivo activity of the selected TRPM8 activating compounds (TZM-7) has been assessed in an animal model following the protocol described in Acosta M C et al., Invest Ophthalmol Vis Sci 2014 (Corneal sensory nerve activity in an experimental model of UV keratitis. Acosta M et al., Invest Ophthalmol Vis Sci May 1; 55(6):3403-12). […] Tear secretion can be measured using phenol red threads (Zone-Quick, Menicon, Nagoya, Japan) that are applied to the nasal edge of the lower eyelid for 30 seconds (after that time, the distance of the red-dyed thread is measured in mm).

T1 sequence (Q7Z2W7 whole entry): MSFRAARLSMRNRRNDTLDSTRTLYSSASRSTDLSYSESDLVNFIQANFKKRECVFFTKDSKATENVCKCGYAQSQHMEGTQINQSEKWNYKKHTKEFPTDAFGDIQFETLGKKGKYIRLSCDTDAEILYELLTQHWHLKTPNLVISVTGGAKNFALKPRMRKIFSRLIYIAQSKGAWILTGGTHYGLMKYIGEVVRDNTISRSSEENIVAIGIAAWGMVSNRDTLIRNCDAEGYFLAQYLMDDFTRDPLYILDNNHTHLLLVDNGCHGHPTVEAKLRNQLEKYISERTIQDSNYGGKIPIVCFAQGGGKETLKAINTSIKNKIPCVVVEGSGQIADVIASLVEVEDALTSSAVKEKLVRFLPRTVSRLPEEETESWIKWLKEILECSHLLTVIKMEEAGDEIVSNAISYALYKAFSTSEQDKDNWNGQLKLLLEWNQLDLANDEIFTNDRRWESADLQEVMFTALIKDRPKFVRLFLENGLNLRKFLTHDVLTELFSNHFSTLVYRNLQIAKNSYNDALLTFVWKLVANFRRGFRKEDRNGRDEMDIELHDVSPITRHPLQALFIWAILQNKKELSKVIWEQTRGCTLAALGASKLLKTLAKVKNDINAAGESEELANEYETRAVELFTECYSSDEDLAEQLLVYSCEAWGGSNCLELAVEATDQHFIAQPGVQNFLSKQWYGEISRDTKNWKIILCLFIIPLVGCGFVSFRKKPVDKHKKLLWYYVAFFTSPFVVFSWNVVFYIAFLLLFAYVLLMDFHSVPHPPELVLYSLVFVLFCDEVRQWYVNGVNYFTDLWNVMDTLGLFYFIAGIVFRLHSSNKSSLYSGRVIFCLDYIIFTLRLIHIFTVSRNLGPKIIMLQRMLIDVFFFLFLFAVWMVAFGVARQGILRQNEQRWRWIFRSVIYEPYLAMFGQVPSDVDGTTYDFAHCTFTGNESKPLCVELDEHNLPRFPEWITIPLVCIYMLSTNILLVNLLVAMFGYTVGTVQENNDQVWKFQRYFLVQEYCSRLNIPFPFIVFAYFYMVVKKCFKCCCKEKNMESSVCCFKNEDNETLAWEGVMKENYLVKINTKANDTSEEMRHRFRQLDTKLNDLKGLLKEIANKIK

- activation at 10 µM ([1]; 10 μM, Fluo-4NW fluorescence): 78.5 ± 30.6%
- EC50 ([1]; concentrations 0.1, 1, 10 and 100 μM, sigmoid fit): 2910 ± 210 nM
Structure (SMILES): COc1cc(OC)cc(-c2cn([C@@H]3C[C@H](C)CC[C@H]3C(C)C)nn2)c1 [TZM-7, 4-(3,5-dimethoxyphenyl)-1-((1R,2S,5R)-2-isopropyl-5-methylcyclohexyl)-1H-1,2,3-triazole]
- specificity to activate TRPM8 channels compared with other channels (TRPV1 and TRPA1) [2]: high specificity
- rate of lachrymation (tear secretion) [3]: significantly increases the rate of lachrymation
